ChEMBL document CHEMBL3217456 (Medchemcomm, 2014)
Activity calls are given as the source filed them. The rule behind the calls is not given here.

Assays:
[1] = molecular target: Histamine H2 receptor (Cavia porcellus) (UniProt P47747); assay: Antagonist activity at guinea pig histamine H2 receptor assessed as reduction of histamine-induced maximal response after 30 mins
[2] = molecular target: Histamine H2 receptor (Cavia porcellus) (UniProt P47747); assay: Agonist activity at guinea pig histamine H2 receptor assessed as potentiation of histamine-induced response at 30 uM after 30 mins relative to histamine
[3] = molecular target: Histamine H1 receptor (Homo sapiens) (UniProt P35367); assay: Intrinsic activity at human recombinant histamine H1 receptor expressed in Sf9 cells coexpressing RGS4 preincubated for 2 mins before [gamma32P]GTP addition measured after 20 mins by steady-state GTPase activity assay relative to histamine
Chain of Histamine H1 receptor (Homo sapiens) (P35367 whole entry, the tested form may be a part): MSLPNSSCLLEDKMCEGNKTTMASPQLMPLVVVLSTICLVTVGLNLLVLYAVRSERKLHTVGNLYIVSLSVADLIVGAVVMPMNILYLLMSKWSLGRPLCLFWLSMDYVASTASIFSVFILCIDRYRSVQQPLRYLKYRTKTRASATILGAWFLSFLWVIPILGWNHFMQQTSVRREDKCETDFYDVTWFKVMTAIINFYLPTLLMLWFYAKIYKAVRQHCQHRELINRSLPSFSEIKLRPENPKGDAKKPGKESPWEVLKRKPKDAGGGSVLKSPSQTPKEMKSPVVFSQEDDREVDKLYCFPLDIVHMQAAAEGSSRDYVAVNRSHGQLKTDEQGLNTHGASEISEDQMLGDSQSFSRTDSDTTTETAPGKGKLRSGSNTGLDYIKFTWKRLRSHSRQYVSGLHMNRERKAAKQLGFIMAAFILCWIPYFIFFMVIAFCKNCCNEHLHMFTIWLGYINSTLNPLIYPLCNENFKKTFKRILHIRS

[4] = molecular target: T1, Histamine H2 receptor (Cavia porcellus, UniProt P47747); assay: (§1) Antagonist activity at guinea pig histamine H2 receptor assessed as inhibition of histamine-induced response after 30 mins; conditions: read-out: pA2 (converted)
T1 sequence (P47747 whole entry, the tested form may be a part): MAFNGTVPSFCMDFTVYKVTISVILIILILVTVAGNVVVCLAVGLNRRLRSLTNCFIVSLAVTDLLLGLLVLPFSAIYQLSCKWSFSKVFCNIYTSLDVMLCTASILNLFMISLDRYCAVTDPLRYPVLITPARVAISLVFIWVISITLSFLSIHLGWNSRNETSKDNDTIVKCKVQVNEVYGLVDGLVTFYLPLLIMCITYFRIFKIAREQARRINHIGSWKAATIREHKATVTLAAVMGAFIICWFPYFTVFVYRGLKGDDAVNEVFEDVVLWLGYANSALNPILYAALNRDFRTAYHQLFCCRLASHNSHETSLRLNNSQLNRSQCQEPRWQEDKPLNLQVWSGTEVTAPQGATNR

[5] = molecular target: T2, Histamine H4 receptor (Homo sapiens, UniProt Q9H3N8); assay: Agonist activity at human recombinant histamine H4 receptor-RGS19 fusion protein expressed in Sf9 cells coexpressing Galphai2,Gbeta1gamma2 preincubated for 2 mins before [gamma32P]GTP addition measured after 20 mins by steady-state GTPase activity assay
T2 sequence (Q9H3N8 whole entry, the tested form may be a part): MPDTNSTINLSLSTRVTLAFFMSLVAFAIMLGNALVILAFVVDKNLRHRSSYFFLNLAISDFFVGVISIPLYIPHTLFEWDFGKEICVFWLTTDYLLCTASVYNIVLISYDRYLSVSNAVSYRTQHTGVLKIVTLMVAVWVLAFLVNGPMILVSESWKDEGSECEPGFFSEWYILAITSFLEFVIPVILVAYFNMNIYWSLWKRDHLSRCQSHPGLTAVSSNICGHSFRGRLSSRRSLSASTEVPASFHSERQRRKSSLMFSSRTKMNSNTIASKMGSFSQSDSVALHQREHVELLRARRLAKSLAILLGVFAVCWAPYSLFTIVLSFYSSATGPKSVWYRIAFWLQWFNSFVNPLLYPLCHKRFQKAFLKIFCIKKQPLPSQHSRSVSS

[6] = molecular target: T2, Histamine H4 receptor; assay: Intrinsic activity at human recombinant histamine H4 receptor-RGS19 fusion protein expressed in Sf9 cells coexpressing Galphai2,Gbeta1gamma2 preincubated for 2 mins before [gamma32P]GTP addition measured after 20 mins by steady-state GTPase activity assay relative to histamine
[7] = molecular target: T3, Histamine H3 receptor (Homo sapiens, UniProt Q9Y5N1); assay: Antagonist activity at human recombinant histamine H3 receptor expressed in Sf9 cells coexpressing Galphai2,Gbeta1gamma2 and RGS4 assessed as inhibition of histamine-induced […] hydrolysis preincubated for 2 mins before [gamma32P]GTP addition measured after 20 mins by steady-state GTPase activity assay; assay type: functional
T3 sequence (Q9Y5N1 whole entry): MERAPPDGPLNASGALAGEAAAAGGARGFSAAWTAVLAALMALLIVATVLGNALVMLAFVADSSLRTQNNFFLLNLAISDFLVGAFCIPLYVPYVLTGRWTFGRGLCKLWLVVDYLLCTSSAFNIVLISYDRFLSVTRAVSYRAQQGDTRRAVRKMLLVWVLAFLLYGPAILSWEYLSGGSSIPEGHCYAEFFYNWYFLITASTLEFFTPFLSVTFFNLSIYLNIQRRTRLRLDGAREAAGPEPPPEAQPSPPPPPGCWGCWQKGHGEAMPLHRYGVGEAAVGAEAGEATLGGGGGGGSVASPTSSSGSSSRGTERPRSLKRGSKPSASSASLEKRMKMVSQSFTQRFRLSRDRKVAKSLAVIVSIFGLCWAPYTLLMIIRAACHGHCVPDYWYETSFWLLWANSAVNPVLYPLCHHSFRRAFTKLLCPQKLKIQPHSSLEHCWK

[8] = molecular target: Histamine H1 receptor (Homo sapiens) (UniProt P35367); assay: Antagonist activity at human recombinant histamine H1 receptor expressed in Sf9 cells coexpressing RGS4 assessed as inhibition of histamine-induced […] hydrolysis preincubated for 2 mins before [gamma32P]GTP addition measured after 20 mins by steady-state GTPase activity assay; assay type: functional
[9] = molecular target: T3, Histamine H3 receptor; assay: Intrinsic activity at human recombinant histamine H3 receptor expressed in Sf9 cells coexpressing Galphai2,Gbeta1gamma2 and RGS4 preincubated for 2 mins before [gamma32P]GTP addition measured after 20 mins by steady-state GTPase activity assay relative to histamine
[10] = molecular target: T4, Histamine H2 receptor (Homo sapiens, UniProt P25021); assay: (§2) Antagonist activity at human recombinant histamine H2 receptor-Gsalphas fusion protein expressed in Sf9 cells assessed as inhibition of histamine-induced […] hydrolysis preincubated for 2 mins before [gamma32P]GTP addition measured after 20 mins by steady-state GTPase activity assay; assay type: functional
T4 sequence (P25021 whole entry, the tested form may be a part): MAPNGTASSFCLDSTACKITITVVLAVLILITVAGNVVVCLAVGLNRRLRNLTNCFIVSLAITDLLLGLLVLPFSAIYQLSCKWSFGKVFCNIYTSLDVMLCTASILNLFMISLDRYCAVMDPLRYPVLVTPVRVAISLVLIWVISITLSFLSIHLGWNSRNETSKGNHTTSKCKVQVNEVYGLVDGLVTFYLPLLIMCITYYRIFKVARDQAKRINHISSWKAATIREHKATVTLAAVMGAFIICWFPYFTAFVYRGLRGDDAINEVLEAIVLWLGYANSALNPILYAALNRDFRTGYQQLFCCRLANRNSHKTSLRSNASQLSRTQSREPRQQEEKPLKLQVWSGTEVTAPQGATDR

[11] = molecular target: T4, Histamine H2 receptor; assay: Intrinsic activity at human recombinant histamine H2 receptor-Gsalphas fusion protein expressed in Sf9 cells preincubated for 2 mins before [gamma32P]GTP addition measured after 20 mins by steady-state GTPase activity assay relative to histamine
[12] = molecular target: Histamine H1 receptor (Homo sapiens) (UniProt P35367); conditions: Sf9
[13] = molecular target: T2, Histamine H4 receptor; assay: Agonist activity at human recombinant histamine H4 receptor-RGS19 fusion protein expressed in Sf9 cells coexpressing Galphai2,Gbeta1gamma2 assessed as [35S]GTPgammaS binding after 90 mins by liquid scintillation counting; assay type: functional
[14] = molecular target: T3, Histamine H3 receptor; assay: Agonist activity at human recombinant histamine H3 receptor expressed in Sf9 cells coexpressing Galphai2,Gbeta1gamma2 and RGS4 assessed as [35S]GTPgammaS binding after 90 mins by liquid scintillation counting; assay type: functional
[15] = molecular target: T4, Histamine H2 receptor; assay: Agonist activity at human recombinant histamine H2 receptor-Gsalphas fusion protein expressed in Sf9 cells assessed as [35S]GTPgammaS binding after 90 mins by liquid scintillation counting; assay type: functional
[16] = molecular target: T4, Histamine H2 receptor; assay: Agonist activity at human recombinant histamine H2 receptor-Gsalphas fusion protein expressed in Sf9 cells preincubated for 2 mins before [gamma32P]GTP addition measured after 20 mins by steady-state GTPase activity assay
[17] = molecular target: Histamine H1 receptor (Cavia porcellus, UniProt P31389); assay: Antagonist activity at guinea pig ileum histamine H1 receptor assessed as inhibition of histamine-induced response after 10 to 15 mins; assay type: tissue-based; conditions: read-out: pA2 (converted)
Chain of Histamine H1 receptor (P31389 whole entry): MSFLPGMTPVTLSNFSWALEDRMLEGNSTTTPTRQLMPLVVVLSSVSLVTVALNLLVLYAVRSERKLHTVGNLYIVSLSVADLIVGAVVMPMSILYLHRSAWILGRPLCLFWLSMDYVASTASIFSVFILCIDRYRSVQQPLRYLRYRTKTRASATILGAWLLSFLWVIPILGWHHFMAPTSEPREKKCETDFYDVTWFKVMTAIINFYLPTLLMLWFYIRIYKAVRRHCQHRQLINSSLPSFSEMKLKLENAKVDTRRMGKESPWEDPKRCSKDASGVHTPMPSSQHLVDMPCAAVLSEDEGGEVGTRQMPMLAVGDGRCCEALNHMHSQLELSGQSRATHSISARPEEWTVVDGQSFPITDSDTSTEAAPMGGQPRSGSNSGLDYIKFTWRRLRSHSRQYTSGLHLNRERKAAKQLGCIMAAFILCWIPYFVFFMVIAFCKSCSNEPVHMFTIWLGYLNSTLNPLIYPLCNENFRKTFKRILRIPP

[18] = molecular target: T1, Histamine H2 receptor; assay: Agonist activity at guinea pig atrium histamine H2 receptor assessed as potentiation of histamine-induced response after 30 mins; set-up: species or system Cardiac atrium
[19] = molecular target: Histamine H2 receptor (Cavia porcellus) (UniProt P47747); assay: Agonist activity at guinea pig histamine H2 receptor assessed as potentiation of histamine-induced response after 30 mins relative to histamine
[20] = molecular target: T3, Histamine H3 receptor; assay: Antagonist activity at human recombinant histamine H3 receptor expressed in Sf9 cells coexpressing Galphai2,Gbeta1gamma2 and RGS4 assessed as inhibition of histamine-induced [35S]GTPgammaS binding after 90 mins by liquid scintillation counting; assay type: functional
[21] = molecular target: T2, Histamine H4 receptor; assay: Antagonist activity at human recombinant histamine H4 receptor-RGS19 fusion protein expressed in Sf9 cells coexpressing Galphai2,Gbeta1gamma2 assessed as inhibition of histamine-induced [35S]GTPgammaS binding after 90 mins by liquid scintillation counting; assay type: functional
[22] = molecular target: T3, Histamine H3 receptor; assay: Intrinsic activity at human recombinant histamine H3 receptor expressed in Sf9 cells coexpressing Galphai2,Gbeta1gamma2 and RGS4 assessed as [35S]GTPgammaS binding at 10 uM after 90 mins by liquid scintillation counting relative to histamine; assay type: functional
[23] = molecular target: T2, Histamine H4 receptor; assay: Intrinsic activity at human recombinant histamine H4 receptor-RGS19 fusion protein expressed in Sf9 cells coexpressing Galphai2,Gbeta1gamma2 assessed as [35S]GTPgammaS binding at 10 uM after 90 mins by liquid scintillation counting relative to histamine; assay type: functional
[24] = molecular target: Histamine H2 receptor (Cavia porcellus) (UniProt P47747); assay: as §1
[25] = molecular target: T2, Histamine H4 receptor; assay: as §2, with “H4 receptor-RGS19” for “H2 receptor-Gsalphas”, “cells coexpressing Galphai2,Gbeta1gamma2” for “cells”; assay type: functional
[26] = molecular target: T1, Histamine H2 receptor; assay: Agonist activity at guinea pig histamine H2 receptor assessed as potentiation of histamine-induced response at after 30 mins
[27] = molecular target: T4, Histamine H2 receptor; assay: Intrinsic activity at human recombinant histamine H2 receptor-Gsalphas fusion protein expressed in Sf9 cells assessed as [35S]GTPgammaS binding at 10 uM after 90 mins by liquid scintillation counting relative to histamine; assay type: functional
[28] = Selectivity ratio of EC50 for human recombinant histamine H1 receptor expressed in Sf9 cells coexpressing RGS4 to EC50 for human recombinant histamine H4 receptor-RGS19 fusion protein expressed in Sf9 cells coexpressing Galphai2,Gbeta1gamma2
[29] = Selectivity ratio of EC50 for human recombinant histamine H3 receptor expressed in Sf9 cells coexpressing Galphai2,Gbeta1gamma2 and RGS4 to EC50 for human recombinant histamine H4 receptor-RGS19 fusion protein expressed in Sf9 cells coexpressing Galphai2,Gbeta1gamma2
[30] = molecular target: T4, Histamine H2 receptor; assay: Antagonist activity at human recombinant histamine H2 receptor-Gsalphas fusion protein expressed in Sf9 cells assessed as inhibition of histamine-induced [35S]GTPgammaS binding after 90 mins by liquid scintillation counting; assay type: functional
[31] = Selectivity ratio of EC50 for human recombinant histamine H2 receptor-Gsalphas fusion protein expressed in Sf9 cells to EC50 for human recombinant histamine H4 receptor-RGS19 fusion protein expressed in Sf9 cells coexpressing Galphai2,Gbeta1gamma2
[32] = molecular target: Histamine H2 receptor (Cavia porcellus) (UniProt P47747); assay: Agonist activity at guinea pig histamine H2 receptor assessed as potentiation of histamine-induced response at 10 uM after 30 mins relative to histamine

Chain of Histamine H2 receptor (Cavia porcellus) (P47747 whole entry): as the sequence (P47747 whole entry, the tested form may be a part) above

| SMILES | Intrinsic activity [3] | pKb [7] | pKb [8] | Intrinsic activity [9] | pKb [10] | Intrinsic activity [11] | Kb [17] | pKb [25] | further results |
| --- | --- | --- | --- | --- | --- | --- | --- | --- | --- |
| CC(CC(=O)/N=C(\N)NCCCc1ncc[nH]1)c1ccccc1 (stereo not given) | 0.09 | 5.41 | < 5 | -0.32 | 5.3 | 0.03 | – | – | pD'2 [1]: 4.44; Emax [2]: 54%; Kb [4]: 12.6 µM; EC50 [5]: 2.88 µM; Intrinsic activity [6]: 0.35 |
| CN/C(=N/C#N)NCCCCc1cnn[nH]1 | – | – | – | – | – | – | – | – | pEC50 [12]: inactive; pEC50 [13]: inactive; pEC50 [14]: inactive; pEC50 [15]: inactive |
| N/C(=N\C(=O)CC(c1ccccc1)c1ccccc1)NCCCc1ncn[nH]1 | 0.06 | < 5 | < 5 | -0.03 | – | 0.42 | 1.62 µM | – | pEC50 [5]: inactive; EC50 [16]: 0.407 µM; EC50 [18]: 0.204 µM; Efficacy [19]: 83% |
| CN/C(=N\C#N)NCCCCNc1nc(N)n[nH]1 | – | – | – | – | – | – | – | – | pEC50 [12]: inactive; pEC50 [13]: inactive; pEC50 [14]: inactive; pEC50 [15]: inactive |
| CN/C(=N\C#N)NCCCNc1ccccn1 | – | – | – | – | – | – | – | – | pKb [20]: < 5; pEC50 [12]: inactive; pKb [21]: < 5; Intrinsic activity [22]: -0.03; pEC50 [15]: inactive; Intrinsic activity [23]: -0.13 |
| Cc1nc(N)sc1CCCNC(=N)NC(=O)CC(C)c1ccccc1 (stereo not given) | – | – | – | – | – | – | – | – | pD'2 [1]: < 4.5; Kb [4]: > 31.6 µM |
| CC(CC(=O)/N=C(\N)NCCCn1ccnc1)c1ccccc1 (stereo not given) | – | < 5 | < 5 | -0.05 | < 5 | – | 1.12 µM | – | pD'2 [1]: 4.16; Emax [2]: 69%; Kb [4]: > 31.6 µM; EC50 [5]: 1 µM; Intrinsic activity [6]: 0.77 |
| CN/C(=N\C#N)NCCCCNc1ccccn1 | 0.03 | – | < 5 | – | – | – | – | – | pKb [20]: < 5; pKb [21]: < 5; Intrinsic activity [22]: -0.1; pEC50 [15]: inactive; Intrinsic activity [23]: -0.11 |
| CC(CC(=O)/N=C(\N)NCCCc1ccncc1)c1ccccc1 (stereo not given) | 0.12 | < 5 | < 5 | -0.07 | 5.54 | 0 | – | < 5 | pD'2 [1]: 4.54; Kb [4]: 19.1 µM; pD2 [24]: 4.54 |
| CC(CC(=O)/N=C(\N)NCCCc1ccccn1)c1ccccc1 (stereo not given) | 0.21 | < 5 | 5.34 | -0.17 | – | 0.3 | – | < 5 | EC50 [16]: 0.832 µM; EC50 [18]: 0.195 µM; Efficacy [19]: 26% |
| CC(CC(=O)/N=C(\N)NCCCc1ncn[nH]1)c1ccccc1 (stereo not given) | – | < 5 | < 5 | -0.03 | – | 0.66 | 1.48 µM | – | Kb [4]: 0.479 µM; pEC50 [5]: inactive; EC50 [16]: 0.741 µM; EC50 [26]: 0.1 µM; Efficacy [19]: 100% |
| N/C(=N\C(=O)CC(c1ccccc1)c1ccccc1)NCCCn1ccnc1 | 0.01 | < 5 | < 5 | -0.07 | 5.82 | -0.07 | 2.34 µM | < 5 | – |
| CC(CC(=O)/N=C(\N)NCCCc1cn[nH]c1)c1ccccc1 (stereo not given) | – | < 5 | < 5 | 0.04 | – | 0.44 | 3.8 µM | < 5 | EC50 [16]: 0.24 µM; EC50 [18]: 0.468 µM; Efficacy [19]: 54% |
| CN/C(=N\C#N)NCCNc1nccc(N)n1 | – | – | – | – | – | – | – | – | pKb [20]: < 5; pEC50 [12]: inactive; pKb [21]: < 5; Intrinsic activity [22]: -0.16; pEC50 [15]: inactive; Intrinsic activity [23]: -0.11 |
| Cc1[nH]cnc1CCCCN/C(=N\C#N)NCCSc1ccccc1 | -0.03 | – | < 5.3 | – | – | – | – | – | Intrinsic activity [27]: -0.06; pKb [20]: 5.5; Ratio EC50 [28]: > 10; EC50 [13]: 0.245 µM; Ratio EC50 [29]: > 10; Intrinsic activity [22]: -0.65; pKb [30]: 5.36; Intrinsic activity [23]: 0.37; Ratio EC50 [31]: > 10 |
| CC(CC(=O)/N=C(\N)NCCCc1ncc[nH]1)c1cccs1 (stereo not given) | – | 5.35 | – | -0.46 | 5.26 | 0.04 | – | – | EC50 [5]: 0.776 µM; Intrinsic activity [6]: 0.5 |
| CC(CC(=O)/N=C(\N)NCCCc1cccnc1)c1ccccc1 (stereo not given) | – | < 5 | < 5 | -0.01 | 5.27 | -0.11 | – | < 5 | pD'2 [1]: 4.22; Kb [4]: > 31.6 µM |
| N/C(=N\C(=O)CC(c1ccccc1)c1ccccc1)NCCCc1cn[nH]c1 | 0.06 | < 5 | 5.06 | -0.02 | 5.42 | 0.08 | 2.57 µM | < 5 | EC50 [18]: 0.363 µM; Efficacy [19]: 41% |
| CN/C(=N\C#N)NCCCNc1nccc(N)n1 | 0.03 | – | < 5 | – | – | – | – | – | pKb [20]: < 5; pEC50 [13]: inactive; Intrinsic activity [22]: -0.24; pEC50 [15]: inactive |
| CC(CC(=O)/N=C(\N)NCCCc1ccc(CN(C)C)o1)c1ccccc1 (stereo not given) | 0.04 | 5.92 | < 5 | -0.64 | 6.52 | -0.12 | 3.02 µM | < 5 | Emax [32]: 68%; Efficacy [19]: 0% |
| Cc1nc(CCCCN/C(=N\C#N)NCCSc2ccccc2)c[nH]1 | -0.01 | – | < 5.3 | – | – | – | – | – | Intrinsic activity [27]: -0.05; pKb [20]: < 5; pKb [21]: 6.21; Intrinsic activity [22]: -0.47; EC50 [15]: 16.2 µM; Intrinsic activity [23]: -0.24 |
